The values that follow come from publication PMC12769732 (Nature Communications, 2025).

Like-named read-outs stand apart in the source and are kept apart here.

One test deals with DAT WT (Homo sapiens, UniProt Q01959). The test is described as follows: [3H]Dopamine transport assay, wild-type DAT. The test is classed as cell-based.
The target in a further test is DAT F326A (Homo sapiens, UniProt Q01959, F326A). The test is described as follows: [3H]Dopamine transport assay, DAT F326A mutant. The test is classed as cell-based. Conditions: for IC50: IC50 of [3H]dopamine uptake, F326A mutant of DAT, HEK-293F cells, n = 3.
Chain of DAT F326A (Q01959 57-620 F326A limits assumed): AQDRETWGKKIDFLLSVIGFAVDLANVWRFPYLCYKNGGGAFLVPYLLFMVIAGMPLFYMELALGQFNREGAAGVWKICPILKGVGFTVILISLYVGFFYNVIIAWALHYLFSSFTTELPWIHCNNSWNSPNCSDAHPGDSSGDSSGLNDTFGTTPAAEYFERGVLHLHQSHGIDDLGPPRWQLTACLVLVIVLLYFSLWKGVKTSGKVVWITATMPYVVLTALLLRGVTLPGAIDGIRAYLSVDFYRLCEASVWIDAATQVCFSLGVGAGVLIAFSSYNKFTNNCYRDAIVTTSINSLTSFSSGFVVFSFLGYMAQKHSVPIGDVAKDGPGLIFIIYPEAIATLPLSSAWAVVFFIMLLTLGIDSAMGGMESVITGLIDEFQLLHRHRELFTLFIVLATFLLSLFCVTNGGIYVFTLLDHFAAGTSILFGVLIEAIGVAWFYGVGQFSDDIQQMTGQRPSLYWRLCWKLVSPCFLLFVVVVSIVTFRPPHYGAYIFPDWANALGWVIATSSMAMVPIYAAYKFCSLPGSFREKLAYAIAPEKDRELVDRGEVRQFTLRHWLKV
The next test addresses DAT V152A (Homo sapiens, UniProt Q01959, V152A). Nature of the test: [3H]Dopamine transport assay, DAT V152A mutant. The test is classed as cell-based.
Test [1] has as its system DAT. Conditions: cited from earlier work.
The next test deals with NET. Conditions: cited from earlier work.
Test [2] deals with SERT. The settings on record: cited from earlier work.
The subject of test [3] is DAT. Nature of the test: Reported inhibition of DAT. The test is classed as biochemical. Conditions: relative to tesofensine.
A further test has as its target DAT S422A (Homo sapiens, UniProt Q01959, S422A). The test is described as follows: [3H]Dopamine transport assay, DAT S422A mutant. The test is classed as cell-based.
Test [4] deals with SERT. The settings on record: read-out: reported equilibrium dissociation constant (KD) for SERT; cited from earlier work.
For test [5], the system named is SERT. The settings on record: ref 75 (El-Kasaby A, et al.); cited from earlier work.
Test [6] deals with DAT (Homo sapiens, UniProt Q01959). The settings on record: close analog of nefazodone; no reference given; cited from earlier work.
Chain of DAT (Homo sapiens, UniProt Q01959) (Q01959 whole entry): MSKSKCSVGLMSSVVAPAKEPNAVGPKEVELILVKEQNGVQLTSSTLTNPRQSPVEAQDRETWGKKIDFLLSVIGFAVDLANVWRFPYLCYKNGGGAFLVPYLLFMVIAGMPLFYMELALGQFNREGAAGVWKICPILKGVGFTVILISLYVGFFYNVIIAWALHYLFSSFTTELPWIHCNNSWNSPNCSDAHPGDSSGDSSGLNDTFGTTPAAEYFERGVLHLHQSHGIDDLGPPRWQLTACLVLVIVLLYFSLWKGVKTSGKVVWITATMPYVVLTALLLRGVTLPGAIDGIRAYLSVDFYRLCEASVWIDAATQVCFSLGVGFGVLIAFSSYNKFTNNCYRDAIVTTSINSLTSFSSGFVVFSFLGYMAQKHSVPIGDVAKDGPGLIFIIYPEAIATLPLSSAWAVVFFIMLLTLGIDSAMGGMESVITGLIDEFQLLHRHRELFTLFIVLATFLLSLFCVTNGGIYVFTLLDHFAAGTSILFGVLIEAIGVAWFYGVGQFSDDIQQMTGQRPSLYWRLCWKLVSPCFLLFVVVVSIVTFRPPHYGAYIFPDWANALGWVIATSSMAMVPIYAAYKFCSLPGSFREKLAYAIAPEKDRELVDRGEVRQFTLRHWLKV

What is called IC50 is the point on the concentration scale where inhibition reaches its midpoint. As usually defined, the Kd is the free concentration of one partner at which half of the binding sites on the other are occupied at equilibrium, for simple one-to-one binding.

Chain of DAT S422A (Q01959 57-620 S422A limits assumed): as the sequence (Q01959 57-620 F326A limits assumed) above, with A270F, S366A counted along it
Chain of DAT WT (Q01959 57-620 limits assumed): as the sequence (Q01959 57-620 F326A limits assumed) above, with A270F counted along it
Chain of DAT V152A (Q01959 57-620 V152A limits assumed): as the sequence (Q01959 57-620 F326A limits assumed) above, with V96A, A270F counted along it

As for `c1ccc2cc([C@]34CNC[C@H]3C4)ccc2c1` [centanafadine], the IC50 on DAT WT is 0.116 µM; against DAT F326A, 2.09 µM; on DAT V152A it was 0.246 µM; in the test with DAT [1] (read-out: IC50 of dopamine reuptake) it was 0.038 µM; in the test with NET (read-out: IC50 of norepinephrine reuptake), 0.006 µM; in the test on SERT [2] (read-out: IC50 of serotonin reuptake) it was 0.083 µM. In addition, the “change of IC50 versus DAT WT” value on DAT V152A (V152A mutant versus WT) is “nearly doubling”.

For the molecule `COC(=O)[C@H]1[C@@H](OC(=O)c2ccccc2)C[C@@H]2CC[C@H]1N2C` [cocaine], in the test with DAT [3], the “fold lower affinity for DAT than tesofensine” value came to 50 fold.

For the molecule `N[C@@H]1CC[C@@H](c2ccc(Cl)c(Cl)c2)c2ccccc21` [dasotraline], the IC50 on DAT WT was 0.00243 µM; against DAT F326A it was 3.74 µM; on DAT S422A, 4.7 µM; in the test on DAT [1] (read-out: reported IC50 on DAT), 0.003 µM; with NET (read-out: reported IC50 on NET) it was 0.004 µM; in the test with SERT [2] (read-out: reported IC50 on SERT), 0.015 µM. The “fold increase of IC50 (decrease of inhibitory potency) versus DAT WT” value at DAT F326A (F326A mutant versus WT) is “approximately 1500 fold”. Besides, the “fold increase of IC50 versus DAT WT” value on DAT S422A (S422A mutant versus WT) is on record as 1900 fold.

Consider `CCc1nn(CCCN2CCN(c3cccc(Cl)c3)CC2)c(=O)n1CCOc1ccccc1` [nefazodone], for which the Kd at SERT [4] is 0.2 µM. The “mode of inhibition of SERT” value with SERT [5] was “non-competitive”.

`O=c1n(CCCN2CCN(c3cccc(Cl)c3)CC2)nc2ccccn12` [trazodone]: the “affinity for DAT compared with nefazodone” value on DAT [6] was “markedly reduced”.
